Tested on: genes regulated by the Gcn4 transcription factor
Experiment: Transcript response (DNA microarray) to a titration series of FK506, genes of the Gcn4 geneset
Type: cell-based, Saccharomyces cerevisiae
Protocol: Yeast (Saccharomyces cerevisiae, Strain YPH499, see, Sikorski and Hieter, 1989, A system of shuttle vectors and yeast host strains designated for efficient manipulation of DNA in Saccharomyces cerevisiae, Genetics 122:19-27) cells were grown in YAPD at 30° C. to an OD600 of 1.0 (±0.2), and total RNA prepared by breaking cells in phenol/chloroform and 0.1% SDS by standard procedures (Ausubel et al., 1995, Current Protocols in Molecular Biology, Greene Publishing and Wiley-Interscience, New York, Ch. 13). Poly(A)^+ RNA was selected by affinity chromatography on oligo-dT cellulose (New England Biolabs) essentially as described in Sambrook et al. (Molecular Cloning—A Laboratory Manual (2nd Ed.), Vol. 1, Cold Spring Harbor Laboratory, Cold Spring Harbor, N.Y., 1989). First strand cDNA synthesis was carried out with 2 μg poly(A)^+ RNA and SuperScript™ II reverse transcriptase (Gibco-BRL) according to the manufacturer's instructions with the following modifications. Deoxyribonucleotides were present at the following concentrations: dA, dG, and dC at 500 μM each, dT at 100 μM and either Cy3-dUTP or Cy5-dUTP (Amersham) at 100 μM. cDNA synthesis reactions were carried out at 42-44° C. for 90 minutes, after which RNA was degraded by the addition of 2 units of RNAse H, and the cDNA products were purified by two successive rounds of centrifugation dialysis using MICROCON-30 microconcentrators (Amicon) according to the manufacturer's recommendations.
Double-stranded DNA polynucleotides corresponding in sequence to each ORF in the S. cerevisiae genome encoding a polypeptide greater than 99 amino acids (based on the published yeast genomic sequence, e.g., Goffeau et al., 1996, Science 274:546-567) are made by polymerase chain reaction (PCR) amplification of yeast genomic DNA. Two PCR primers are chosen internal to each of the ORFs according to two criteria: (i) the amplified fragments are 300-800 bp and (ii) none of the fragments have a section of more than 10 consecutive nucleotides of sequence in common. Computer programs are used to aid in the design of the PCR primers. Amplification is carried out in 96 well microtitre plates. The resulting DNA fragments are printed onto glass microscope slides using the method of Shalon et al., 1996, Genome Research 6:639-645.
Fluorescently-labeled cDNAs (2-6 μg) are resuspended in 4×SSC plus 1 μg/μl tRNA as carrier and filtered using […] filters (Millipore, Bedford, Mass.). SDS is added to 0.3%, prior to heating to 100° C. for 2 minutes. Probes are cooled and immediately hybridized to the microarrays produced as described in Example 6.2, for 4 hours at 65° C. Non-hybridized probe is removed by washing in 1×SSC plus 0.1% SDS at ambient temperature for 1-2 minutes. Microarrays are scanned with a fluorescence laser-scanning device as previously described (Schena et al., 1995, Science 270:467-470; Schena et al., 1995, Proc. Natl. Acad. Sci. USA 93:[…]) and the results (including the positions of perturbations) are recorded.
Geneset number 3 in the clustering analysis result of FIG. 6 involves genes regulated by the Gcn4 transcription factor. This was verified via the literature and via multiple sequence alignment analysis of the regulatory regions 5′ to the individual genes (Stormo and Hartzell, 1989, Identifying protein binding sites from unaligned DNA fragments, Proc Natl Acad Sci 86:1183-1187; Hertz and Stormo, 1995, Identification of consensus patterns in unaligned DNA and protein sequences: a large-deviation statistical basis for penalizing gaps, Proc of 3rd Intl Conf on Bioinformatics and Genome Research, Lim and Cantor, eds., World Scientific Publishing Co., Ltd. Singapore, pp. 201-216). […] These 20 were used to define a geneset. Response profiles to a titration series of the drug FK506, which is known to hit this pathway at higher concentrations, were projected onto this geneset. […]

## C=CC[C@@H]1/C=C(\C)C[C@H](C)C[C@H](OC)[C@H]2O[C@@](O)(C(=O)C(=O)N3CCCC[C@H]3C(=O)O[C@H](/C(C)=C/[C@@H]3CC[C@@H](O)[C@H](OC)C3)[C@H](C)[C@@H](O)CC1=O)[C@H](C)C[C@@H]2OC [FK506]
FK506 7.5 μg/ml
  Geneset Average response (projected response of the 20-gene Gcn4 geneset): 7.8209 standard deviations of Log10(Expression Ratio)
  Response of gene ARG1: 4.2215 standard deviations of Log10(Expression Ratio)
  Response of gene ARG4: 3.2973 standard deviations of Log10(Expression Ratio)
  Response of gene ARG5,6: 2.7433 standard deviations of Log10(Expression Ratio)
  Response of gene ARO3: 0.6059 standard deviations of Log10(Expression Ratio)
  Response of gene ECM13: 2.5343 standard deviations of Log10(Expression Ratio)
  Response of gene HIS3: 1.8024 standard deviations of Log10(Expression Ratio)
  Response of gene HIS5: 2.8414 standard deviations of Log10(Expression Ratio)
  Response of gene MET16: 0.1621 standard deviations of Log10(Expression Ratio)
  Response of gene NCE3: 1.569 standard deviations of Log10(Expression Ratio)
  Response of gene PCL5: 2.2898 standard deviations of Log10(Expression Ratio)
  Response of gene SNO1: 2.538 standard deviations of Log10(Expression Ratio)
  Response of gene SNZ1: 2.538 standard deviations of Log10(Expression Ratio)
  Response of gene SSU1: 0.5059 standard deviations of Log10(Expression Ratio)
  Response of gene YBR047W: 1.1596 standard deviations of Log10(Expression Ratio)
  Response of gene YER024W: 1.1526 standard deviations of Log10(Expression Ratio)
  Response of gene YGL117W: 2.699 standard deviations of Log10(Expression Ratio)
  Response of gene YGL184C: −0.4586 standard deviations of Log10(Expression Ratio)
  Response of gene YHR029C: 2.3813 standard deviations of Log10(Expression Ratio)
  Response of gene YMR195W: 0.8879 standard deviations of Log10(Expression Ratio)
FK506 16 μg/ml
  Geneset Average response (projected response of the 20-gene Gcn4 geneset): 19.9913 standard deviations of Log10(Expression Ratio)
  Response of gene ARG1: 4.711 standard deviations of Log10(Expression Ratio)
  Response of gene ARG4: 4.5135 standard deviations of Log10(Expression Ratio)
  Response of gene ARG5,6: 6.0457 standard deviations of Log10(Expression Ratio)
  Response of gene ARO3: 4.0553 standard deviations of Log10(Expression Ratio)
  Response of gene CPA2: 4.1093 standard deviations of Log10(Expression Ratio)
  Response of gene ECM13: 4.8689 standard deviations of Log10(Expression Ratio)
  Response of gene HIS3: 4.6461 standard deviations of Log10(Expression Ratio)
  Response of gene HIS5: 6.0052 standard deviations of Log10(Expression Ratio)
  Response of gene MET16: 3.3857 standard deviations of Log10(Expression Ratio)
  Response of gene NCE3: 5.5819 standard deviations of Log10(Expression Ratio)
  Response of gene PCL5: 5.4688 standard deviations of Log10(Expression Ratio)
  Response of gene SNO1: 5.8877 standard deviations of Log10(Expression Ratio)
  Response of gene SNZ1: 5.8877 standard deviations of Log10(Expression Ratio)
  Response of gene SSU1: 4.6461 standard deviations of Log10(Expression Ratio)
  Response of gene YBR047W: 3.3107 standard deviations of Log10(Expression Ratio)
  Response of gene YER024W: 4.6342 standard deviations of Log10(Expression Ratio)
  Response of gene YGL117W: 4.9827 standard deviations of Log10(Expression Ratio)
  Response of gene YGL184C: 2.7166 standard deviations of Log10(Expression Ratio)
  Response of gene YHR029C: 5.0446 standard deviations of Log10(Expression Ratio)
  Response of gene YMR195W: 4.0983 standard deviations of Log10(Expression Ratio)
FK506 50 μg/ml
  Geneset Average response (projected response of the 20-gene Gcn4 geneset): 21.3315 standard deviations of Log10(Expression Ratio)
  Response of gene ARG1: 5.7996 standard deviations of Log10(Expression Ratio)
  Response of gene ARG4: 5.8858 standard deviations of Log10(Expression Ratio)
  Response of gene ARG5,6: 5.2406 standard deviations of Log10(Expression Ratio)
  Response of gene ARO3: 5.7035 standard deviations of Log10(Expression Ratio)
  Response of gene CPA2: 4.0958 standard deviations of Log10(Expression Ratio)
  Response of gene ECM13: 3.1882 standard deviations of Log10(Expression Ratio)
  Response of gene HIS3: 5.2637 standard deviations of Log10(Expression Ratio)
  Response of gene HIS5: 4.9557 standard deviations of Log10(Expression Ratio)
  Response of gene MET16: 4.855 standard deviations of Log10(Expression Ratio)
  Response of gene NCE3: 3.3928 standard deviations of Log10(Expression Ratio)
  Response of gene PCL5: 5.2339 standard deviations of Log10(Expression Ratio)
  Response of gene SNO1: 5.5665 standard deviations of Log10(Expression Ratio)
  Response of gene SNZ1: 5.5665 standard deviations of Log10(Expression Ratio)
  Response of gene SSU1: 3.5782 standard deviations of Log10(Expression Ratio)
  Response of gene YBR047W: 4.248 standard deviations of Log10(Expression Ratio)
  Response of gene YER024W: 5.8934 standard deviations of Log10(Expression Ratio)
  Response of gene YGL117W: 5.9066 standard deviations of Log10(Expression Ratio)
  Response of gene YGL184C: 5.3106 standard deviations of Log10(Expression Ratio)
  Response of gene YHR029C: 5.5781 standard deviations of Log10(Expression Ratio)
  Response of gene YMR195W: 4.6141 standard deviations of Log10(Expression Ratio)
